Experimental data taken from patent US4892947A, “3(2H)Pyridazinone, process for its preparation and anti-allergic agent containing it” (Nissan Chemical Industries Ltd., priority 1985, dated 1990).
Structures can show the parent of a compound that is named as a salt.

Tests used:
[1] = test system: LTD4; assay: LTD4 antagonism in isolated guinea-pig trachea (method (i)); type: cell-based; settings: for inhibition at 10 µg/mL / inhibition at 1 µg/mL: Cavia porcellus, 5 min; for inhibition at 1 µg/mL: 10^-6 g/ml test compound, Test method (i) (asterisk in Table 4), 5 min prior to LTD4
Protocol: (i) LTC4 and LTD4 antagonisms in guinea-pig trachea
Antagonisms for LTC4 and LTD4 were determined in isolated guinea-pig trachea prepared as spiral strip. Tracheal preparations were suspended under 1 g tension in 10 ml organ baths and they were incubated for 1 hr prior to use. Contractile responses to LTC4 (2×10^-8 g/ml) and LTD4 (2×10^-8 g/ml) were obtained after the maximal response to histamine (10^-4 M). Test compounds dissolved in 100% dimethyl sulfoxide were added to the organ baths (final concentration of 10^-5 g/ml or 10^-6 g/ml) 5 min prior to LTC4 and LTD4 addition, and then contractile responses to LTC4 and LTD4 were compared with those of control which was obtained from a paired trachea in the absence of test compounds. LTC4 - and LTD4 -induced contractions were expressed as a percentage of the maximal response to histamine. The antagonism was determined as follows:
(§1) Antagonism (%)=(1.0-% contraction in test/% contraction in control)×100

[2] = test system: antigen-induced anaphylactic bronchoconstriction in passively sensitized guinea-pig; assay: Anaphylactic bronchoconstriction in passively sensitized guinea-pig, i.v. test; type: in vivo; settings: i.v. 2 mg/kg, 1 min prior to EA challenge (10 mg/kg)
Protocol: (§2) (iii) Effect on anaphylactic bronchoconstriction in passively sensitized guinea-pig
Male guinea-pigs (350-450 g) were passively sensitized with intravenous (i.v.) injection of 0.125 ml rabbit anti-EA (egg albumin) serum (Cappel Laboratories) 1 to 2 days preceding the experiment. […] Sensitized guinea-pigs were anaesthetized with intraperitoneal injection of urethane (1.5 g/kg). The right jugular vein was cannulated for the administration of the all agents and trachea was cannulated to record total pulmonary resistance. Guinea-pigs were artificially ventilated by a small animal respirator (Shinano, Model SN-480-7) set at a stroke volume of 4.5 ml and a rate of 50 breaths per min. […] The increase in air overflow volume was expresssed as a percentage of the maximum bronchoconstriction obtained by clamping off the trachea. Following surgical preparation, the animals were pretreated with indomethacin (0.2 mg/kg, 10 min), pyrilamine (2 mg/kg, 6 min) and propanolol (0.1 mg/kg, 5 min) prior to the EA challenge (0.1 or 10 mg/kg). All test compounds were administered intraveneously or orally before the EA challenge. Inhibition (%) of bronchoconstriction was determined as follows: Inhibition (%)=(1.0%-maximum bronchoconstriction in test/% maximum bronchoconstriction in control)×100. […] The number of test animals was 4 in the i.v. test and 6 in the p.o. test.
(a) The i.v. test: A test compound (2 mg/kg) was suspended or dissolved in 3% Tween 80 and intraveneously administered 1 min prior to the EA challlenge (10 mg/kg).

[3] = test system: ddY strain male mice; assay: Acute toxicity test, intraperitoneal (Test method-(1)); type: in vivo; settings: 7 days
Protocol: The lethal ratio was determined in ddY strain male mice (4 weeks old) at 7 days after the intraperitoneal injection of test compounds.

[4] = test system: antigen-induced anaphylactic bronchoconstriction in passively sensitized guinea-pig; assay: Anaphylactic bronchoconstriction in passively sensitized guinea-pig, p.o. test; type: in vivo; settings: p.o. 50 mg/kg, 2 hours prior to EA challenge (0.2 mg/kg)
Protocol: as §2
Male guinea-pigs (350-450 g) were passively sensitized with intravenous (i.v.) injection of 0.125 ml rabbit anti-EA (egg albumin) serum (Cappel Laboratories) 1 to 2 days preceding the experiment. Antigen-induced anaphylactic bronchoconstrictions were measured by modified method of Konzett and Rossler (Arch. Exp. Path. Pharmak., 195, 71, 1940). Sensitized guinea-pigs were anaesthetized with intraperitoneal injection of urethane (1.5 g/kg). The right jugular vein was cannulated for the administration of the all agents and trachea was cannulated to record total pulmonary resistance. Guinea-pigs were artificially ventilated by a small animal respirator (Shinano, Model SN-480-7) set at a stroke volume of 4.5 ml and a rate of 50 breaths per min. The change in pulmonary resistance was measured with a pressure transducer (Nihon Kohden, Model TP-602T) connected to a T-tube on the tracheal cannula. The increase in air overflow volume was expresssed as a percentage of the maximum bronchoconstriction obtained by clamping off the trachea. Following surgical preparation, the animals were pretreated with indomethacin (0.2 mg/kg, 10 min), pyrilamine (2 mg/kg, 6 min) and propanolol (0.1 mg/kg, 5 min) prior to the EA challenge (0.1 or 10 mg/kg). All test compounds were administered intraveneously or orally before the EA challenge. Inhibition (%) of bronchoconstriction was determined as follows: Inhibition (%)=(1.0%-maximum bronchoconstriction in test/% maximum bronchoconstriction in control)×100. The maximum bronchoconstriction was btained within 30 min after the EA challenge. The number of test animals was 4 in the i.v. test and 6 in the p.o. test.
(b) The p.o. test: A test compound was suspended in 5% gum arabic and orally administered 2 hours prior to the EA challenge (0.2 mg/kg). The reaction of the control was 62±6%.

[5] = test system: LTD4; assay: LTD4 antagonism in isolated guinea-pig trachea with indomethacin (method (ii)); type: cell-based; settings: Cavia porcellus, 0.5 h, 10^-6 g/ml test compound, 30 min prior to LTD4
Protocol: (ii) LTD4 antagonism in guinea-pig trachea
Antagonism for LTD4 was determined in isolated guinea-pig trachea prepared as spiral strip. Tracheal preparations were suspended under 1 g tension in 10 ml organ baths containing […] of indomethacin and they were incubated for 1 hr prior to use. Contractile responses to LTD4 (2×10^-8 g/ml) were obtained after the maximal respone to hitamine (10^-4 M). Test compounds dissolved in 100% dimethyl sulfoxide were added to the organ baths (final concentration of 10^-6 g/ml) 30 min prior to LTD4 addition, and then contractile responses to LTD4 were compared with those of control which was obtained from a paired trachea in the absence of test compounds. LTD4 -induced contractions were expressed as a percentage of the maximal response to histamine. The antagonism was determined as follows:
as §1

[6] = 10^-5 g/ml test compound, 5 min prior to LTD4 (2×10^-8 g/ml)

Structure (SMILES) | inhibition at 10 µg/mL [1, 6] | further results
CC(C)c1ccc(CNc2cnn(C)c(=O)c2Cl)cc1 [Compound No. 1] | 49% | 
C=CCn1ncc(NCc2ccc(Cl)cc2)c(Cl)c1=O [Compound No. 2] | 93% | 
CCOc1cccc(CNc2cnn(C)c(=O)c2Cl)c1 [Compound No. 4] | 49% | 
COc1ccc(CNc2cnn(CCN(C)C)c(=O)c2Cl)cc1OC [Compound No. 8, 4-Chloro-5-(3,4-dimethoxybenzylamino)-2-(2-N,N-dimethylaminoethyl)-3(2H)pyridazinone] | 36% | 
COc1ccc(CNc2cnn(CCN(C)C)c(=O)c2Cl)cc1OC [Compound No. 9, 4-Chloro-5-(3,4-dimethoxybenzylamino)-2-(2-N,N-dimethylaminoethyl)-3(2H)pyridazinone hydrochloride] |  | LTD4 antagonism (%) ([1]; 10^-5 g/ml test compound, 5 min prior to LTD4 (2×10^-8 g/ml), hydrochloride): 26%
CCCOc1cc(CNc2cnn(C)c(=O)c2Cl)ccc1OC [Compound No. 12] | 73% | Inhibition (%) of bronchoconstriction [2]: 31%; Lethal ratio (Death number/Experimental number) ([3]; i.p. 200 mg/kg): 0/2; Lethal ratio (Death number/Experimental number) ([3]; i.p. 400 mg/kg): 0/1
CCCCCOc1cc(CNc2cnn(CCC(=O)OC(C)(C)C)c(=O)c2Cl)ccc1OC [Compound No. 16, 4-Chloro-5-(3-n-pentyloxy-4-methoxybenzylamino)-2-{2-(t-butyloxycarbonyl)ethyl}-3(2H)pyridazinone] | 24% | 
CCCOc1cc(CNc2cn[nH]c(=O)c2Cl)ccc1OC [Compound No. 32] | 100% | inhibition at 1 µg/mL [1]: 64%; Inhibition (%) of bronchoconstriction [4]: 71%
CCCCCOc1cc(CNc2cn[nH]c(=O)c2Cl)ccc1OC [Compound No. 37] |  | inhibition at 1 µg/mL [1]: 87%
CCCCCOc1cc(CNc2cn[nH]c(=O)c2Br)ccc1OC [Compound No. 39, 4-Bromo-5-(3-n-pentyloxy-4-methoxybenzylamino)-3(2H)-pyridazinone] |  | inhibition at 1 µg/mL [1]: 87%
CCCCCCOc1cc(CNc2cn[nH]c(=O)c2Br)ccc1OC [Compound No. 41] |  | inhibition at 1 µg/mL [5]: 87%
CCCOc1cccc(CNc2cnn(C)c(=O)c2Cl)c1 [compound 5] | 71% | 
C=CCn1ncc(NCc2ccc(OC)c(OC)c2)c(Cl)c1=O [compound 6] | 53% | 
Cn1ncc(NCc2cccc(OCc3ccccc3)c2)c(Cl)c1=O [compound 7] | 53% | 
COc1ccc(CNc2cnn(CC(F)(F)F)c(=O)c2Cl)cc1OC [compound 11] | 47% | 
CCCCCOc1cc(CNc2cnn(CCO)c(=O)c2Cl)ccc1OC [compound 14] | 35% | 
CCCCCOc1cc(CNc2cnn(CCCO)c(=O)c2Cl)ccc1OC [compound 15] | 51% | 
CCCCCOc1cc(CNc2cnn(CC(=O)O)c(=O)c2Cl)ccc1OC [compound 17] | 20% | 
CCCCCOc1cc(CNc2cnn(CCC(=O)O)c(=O)c2Cl)ccc1OC [compound 18] | 18% | 
COc1cc(CNc2cnn(C)c(=O)c2Cl)cc(OC)c1OC [compound 19] | 22% | 
COc1cc(CNc2cnn(CCCO)c(=O)c2Cl)cc(OC)c1OC [compound 20] | 19% | 
COc1ccc(CNc2cnn(CCN(C)C)c(=O)c2Cl)cc1O [compound 21] | 20% | 
C=CCn1ncc(NCc2ccc(SC)cc2)c(Cl)c1=O [compound 22] | 72% | 
CCCCC/C=C\c1ccc(CNc2cnn(CC(=O)O)c(=O)c2Cl)cc1 [compound 23] | 31% | 

Structure (SMILES) | inhibition at 10 µg/mL [1, 6] | further results
CCCCOC(=O)c1ccc(CNc2cnn(C)c(=O)c2Cl)cc1 [compound 24] | 43% | 
CN(C)c1ccc(CNc2cn[nH]c(=O)c2Cl)cc1 [compound 25] | 63% | Inhibition (%) of bronchoconstriction [2]: 27%
CCN(CC)c1ccc(CNc2cnn(C)c(=O)c2Cl)cc1 [compound 26] | 46% | 
Cn1ncc(NCc2ccc(C(=O)O)cc2)c(Cl)c1=O [compound 27] | 20% | 
COc1ccc(CNc2cn[nH]c(=O)c2Cl)cc1 [compound 28] | 67% | 
CCCOc1cccc(CNc2cn[nH]c(=O)c2Br)c1 [compound 29] | 61% | 
CCCOc1cc(CNc2cn[nH]c(=O)c2Br)ccc1OC [compound 30] | 100% | inhibition at 1 µg/mL [1]: 78%; Inhibition (%) of bronchoconstriction [4]: 65%
CCCOc1cccc(CNc2cn[nH]c(=O)c2Cl)c1 [compound 31] | 51% | 
CCCCOc1cc(CNc2cn[nH]c(=O)c2Cl)ccc1OC [compound 34] |  | inhibition at 1 µg/mL [1]: 49%
CCOc1cc(CNc2cn[nH]c(=O)c2Cl)ccc1OC [compound 35] |  | inhibition at 1 µg/mL [1]: 42%
CCCCCCOc1cc(CNc2cn[nH]c(=O)c2Cl)ccc1OC [compound 40] |  | inhibition at 1 µg/mL [5]: 99%
CCCCCCCOc1cc(CNc2cn[nH]c(=O)c2Cl)ccc1OC [compound 42] |  | inhibition at 1 µg/mL [5]: 96%
CCCCCCCOc1cc(CNc2cn[nH]c(=O)c2Br)ccc1OC [compound 43] |  | inhibition at 1 µg/mL [5]: 78%
COc1ccc(CNc2cnn(-c3ccccc3)c(=O)c2Cl)cc1 [compound 44] |  | inhibition at 1 µg/mL [5]: 20%
COc1ccc(CNc2cnn(Cc3ccccc3)c(=O)c2Cl)cc1 [compound 45] |  | inhibition at 1 µg/mL [5]: 23%
CCOc1cc(CNc2cnn(C3CCCC3)c(=O)c2Cl)ccc1OC [compound 46] |  | inhibition at 1 µg/mL [5]: 38%
C=CCn1ncc(NCc2ccc(OC)c(OCCC)c2)c(Cl)c1=O [compound 47] |  | inhibition at 1 µg/mL [5]: 31%
C=CCn1ncc(NCc2ccc(OC)c(OCC)c2)c(Cl)c1=O [compound 48] |  | inhibition at 1 µg/mL [5]: 28%
CCOc1cc(CNc2cnn(-c3ccccc3)c(=O)c2Cl)ccc1OC [compound 49] |  | inhibition at 1 µg/mL [5]: 42%
CCOc1cccc(CNc2cnn(Cc3ccccc3)c(=O)c2Cl)c1 [compound 50] |  | inhibition at 1 µg/mL [5]: 30%
Cc1ccc(CNc2cn[nH]c(=O)c2Cl)c(C)c1 [compound 52] |  | inhibition at 1 µg/mL [5]: 22%
Cc1ccc(CNc2cn[nH]c(=O)c2Br)c(C)c1 [compound 53] |  | inhibition at 1 µg/mL [5]: 37%
COc1ccc(CNc2cn[nH]c(=O)c2Cl)cc1OCc1ccccc1 [compound 54] |  | inhibition at 1 µg/mL [5]: 44%
